Reference: DBAASP
Converted amounts (≈) assume the structure as drawn. Values belong to the molecule of their own block, whether it stands above or below them.

What was measured:
Experiment in all cases: ≥ marks a high value that may be exact or a test limit, other limits are often not marked, values filed in µg/mL are converted to µM
[1] = test system: Pseudomonas aeruginosa PAK
Escherichia coli W3110 = test system: Escherichia coli W3110
Enterococcus faecalis = test system: Enterococcus faecalis
[2] = test system: Streptococcus mutans UA159
[3] = test system: Streptococcus sanguinis NY101
[4] = test system: Streptococcus gordonii Challis DL1
[5] = test system: Streptococcus sobrinus ATCC 33478
[6] = test system: Streptococcus mitis ATCC 903
Staphylococcus aureus = test system: Staphylococcus aureus
[7] = test system: Vibrio parahaemolyticus BCRC 10806
[8] = test system: Streptococcus equinus BCRC 14729
[9] = test system: Enterobacter cloacae BCRC 10401
Lactococcus garvieae = test system: Lactococcus garvieae
[10] = test system: Staphylococcus xylosus BCRC 12930
[11] = test system: Staphylococcus aureus BCRC 10780
Vibrio harveyi = test system: Vibrio harveyi
[12] = test system: Klebsiella aerogenes BCRC 10370
[13] = test system: Vibrio anguillarum serotype O1
Streptococcus iniae = test system: Streptococcus iniae
[14] = test system: Klebsiella oxytoca BCRC 13985
[15] = test system: Staphylococcus aureus BCRC 10781
[16] = test system: Vibrio alginolyticus BCRC 12829
Vibrio parahaemolyticus = test system: Vibrio parahaemolyticus
[17] = test system: Pseudomonas aeruginosa BCRC 10944
[18] = test system: Escherichia coli BCRC 10675
[19] = test system: Listeria monocytogenes BCRC 14845
[20] = test system: Yersinia enterocolitica BCRC 13999
Vibrio alginolyticus = test system: Vibrio alginolyticus
[21] = test system: Salmonella enterica subsp. arizonae
Aspergillus fumigatus = test system: Aspergillus fumigatus
Bibersteinia trehalosi = test system: Bibersteinia trehalosi
[22] = test system: Pseudomonas aeruginosa PAO1
[23] = test system: Mannheimia haemolytica Serovar 2
Klebsiella pneumoniae = test system: Klebsiella pneumoniae
Pasteurella multocida = test system: Pasteurella multocida
[24] = test system: Mannheimia haemolytica Serovar 1
[25] = test system: Mannheimia haemolytica Serovar 6
[26] = test system: Corynebacterium pseudotuberculosis ATCC 19410
[27] = test system: Bacillus anthracis Sterne 34F2
Escherichia coli K91BK = test system: Escherichia coli K91BK
[28] = test system: Bacillus subtilis var. niger ATCC 9372

MIC [21]: 15.7 µM (≈ 20 µg/mL)
MIC (Aspergillus fumigatus): 31.4 µM (≈ 40 µg/mL)
MIC (Bibersteinia trehalosi): 15.7 µM (≈ 20 µg/mL)
MIC [22]: 7.85 µM (≈ 9.99 µg/mL)
MIC (Klebsiella pneumoniae): 9.18 µM (≈ 11.7 µg/mL)
MIC (Pasteurella multocida): 15.7 µM (≈ 20 µg/mL)
MIC [26]: 15.7 µM (≈ 20 µg/mL)
MIC (Staphylococcus aureus): > 15.7 µM
SMILES: CC[C@H](C)[C@H](NC(=O)[C@@H](NC(=O)[C@H](Cc1cnc[nH]1)NC(=O)[C@@H](NC(=O)[C@@H](NC(=O)[C@H](CCCCN)NC(=O)[C@H](CCCN=C(N)N)NC(=O)[C@@H](NC(=O)[C@@H](NC(=O)[C@@H](N)CCCN=C(N)N)[C@@H](C)CC)[C@@H](C)CC)[C@@H](C)CC)[C@@H](C)CC)[C@@H](C)CC)C(N)=O [RIIRKIIHII]
MIC [23]: 10.4 µM (≈ 13.3 µg/mL)
MIC [24]: 15.7 µM (≈ 20 µg/mL)
MIC [25]: 15.7 µM (≈ 20 µg/mL)

MIC [21]: 14.3 µM (≈ 20 µg/mL)
MIC (Aspergillus fumigatus): 28.5 µM (≈ 40 µg/mL)
MIC (Bibersteinia trehalosi): 14.3 µM (≈ 20 µg/mL)
MIC [22]: 3.56 µM (≈ 5 µg/mL)
MIC (Klebsiella pneumoniae): 9.48 µM (≈ 13.3 µg/mL)
MIC (Pasteurella multocida): 14.3 µM (≈ 20 µg/mL)
MIC [26]: 14.3 µM (≈ 20 µg/mL)
MIC (Staphylococcus aureus): > 14.3 µM
SMILES: CC[C@H](C)[C@H](NC(=O)[C@H](Cc1cnc[nH]1)NC(=O)[C@@H](NC(=O)[C@@H](NC(=O)[C@H](CCCCN)NC(=O)[C@H](CCCN=C(N)N)NC(=O)[C@@H](NC(=O)[C@@H](NC(=O)[C@@H](N)CCCN=C(N)N)[C@@H](C)CC)[C@@H](C)CC)[C@@H](C)CC)[C@@H](C)CC)C(=O)N[C@H](C(=O)N[C@@H](CCCCN)C(N)=O)[C@@H](C)CC [RIIRKIIHIIK]
MIC [23]: 7.13 µM (≈ 9.99 µg/mL)
MIC [24]: 14.3 µM (≈ 20 µg/mL)
MIC [25]: 7.13 µM (≈ 9.99 µg/mL)

MIC [1]: ≥ 340 µM
MIC (Escherichia coli W3110): ≥ 340 µM
MIC (Enterococcus faecalis): ≥ 340 µM
MIC [2]: ≥ 340 µM
MIC [3]: ≥ 340 µM
MIC [4]: ≥ 340 µM
MIC [5]: ≥ 340 µM
MIC [6]: ≥ 340 µM
MIC (Staphylococcus aureus): > 340 µM
SMILES: NC(=O)CC[C@H](NC(=O)[C@H](Cc1c[nH]c2ccccc12)NC(=O)[C@H](Cc1c[nH]c2ccccc12)NC(=O)[C@H](CC(N)=O)NC(=O)[C@H](Cc1ccc(O)cc1)NC(=O)[C@H](Cc1c[nH]c2ccccc12)NC(=O)[C@@H](N)Cc1c[nH]c2ccccc12)C(=O)N[C@@H](CC(=O)O)C(=O)N[C@@H](Cc1c[nH]c2ccccc12)C(N)=O [WWYNWWQDW]

Second part, the molecule before the results:

SMILES: CC[C@H](C)[C@H](NC(=O)[C@H](Cc1ccccc1)NC(=O)[C@H](Cc1cnc[nH]1)NC(=O)[C@H](CCCCN)NC(=O)[C@@H](NC(=O)[C@@H](N)Cc1ccccc1)[C@@H](C)CC)C(=O)N[C@@H](Cc1cnc[nH]1)C(=O)N[C@@H](CCCN=C(N)N)C(=O)N[C@@H](Cc1ccccc1)C(N)=O [FIKHFIHRF]
MIC [1]: ≥ 402 µM
MIC (Escherichia coli W3110): ≥ 402 µM
MIC (Enterococcus faecalis): ≥ 402 µM
MIC [2]: ≥ 100 µM
MIC [3]: ≥ 100 µM
MIC [4]: ≥ 402 µM
MIC [5]: ≥ 100 µM
MIC [6]: ≥ 402 µM
MIC (Staphylococcus aureus): > 402 µM

SMILES: CC[C@H](C)[C@H](NC(=O)[C@H](CCCCN)NC(=O)[C@H](CCCCN)NC(=O)[C@H](CC(C)C)NC(=O)[C@H](Cc1ccc(O)cc1)NC(=O)[C@H](CC(N)=O)NC(=O)[C@H](Cc1ccc(O)cc1)NC(=O)[C@@H](NC(=O)[C@@H](NC(=O)[C@H](CCCCN)NC(=O)[C@H](C)NC(=O)[C@H](Cc1ccc(O)cc1)NC(=O)[C@H](CCCCN)NC(=O)[C@H](C)NC(=O)CN)[C@@H](C)CC)[C@@H](C)CC)C(=O)N[C@@H](C)C(=O)N[C@@H](CC(N)=O)C(=O)N[C@@H](C)C(=O)N[C@@H](CC(C)C)C(=O)N[C@@H](Cc1c[nH]c2ccccc12)C(=O)O [GAKYAKIIYNYLKKIANALW]
MIC [7]: 6.83 µM (≈ 16 µg/mL)
MIC [8]: 13.7 µM (≈ 32 µg/mL)
MIC [9]: 6.83 µM (≈ 16 µg/mL)
MIC (Lactococcus garvieae): ≥ 54.7 µM
MIC [10]: 6.83 µM (≈ 16 µg/mL)
MIC [11]: 3.42 µM (≈ 8 µg/mL)
MIC (Vibrio harveyi): 1.71 µM (≈ 4 µg/mL)
MIC [12]: 6.83 µM (≈ 16 µg/mL)
MIC [13]: 27.3 µM (≈ 64 µg/mL)
MIC (Streptococcus iniae): 27.3 µM (≈ 64 µg/mL)
MIC [14]: 13.7 µM (≈ 32 µg/mL)
MIC [15]: 6.83 µM (≈ 16 µg/mL)
MIC [16]: 6.83 µM (≈ 16 µg/mL)
MIC (Vibrio parahaemolyticus): 6.83 µM (≈ 16 µg/mL)
MIC [17]: ≥ 54.7 µM
MIC [18]: 27.3 µM (≈ 64 µg/mL)
MIC [19]: 13.7 µM (≈ 32 µg/mL)
MIC [20]: ≥ 54.7 µM
MIC (Vibrio alginolyticus): 6.83 µM (≈ 16 µg/mL)

SMILES: CC[C@H](C)[C@H](NC(=O)[C@H](Cc1ccccc1)NC(=O)[C@H](CCCCN)NC(=O)[C@H](CC(N)=O)NC(=O)[C@@H](NC(=O)[C@H](Cc1ccc(O)cc1)NC(=O)[C@@H](NC(=O)[C@H](Cc1ccc(O)cc1)NC(=O)[C@H](Cc1ccccc1)NC(=O)[C@H](CCCCN)NC(=O)[C@H](CCCCN)NC(=O)[C@H](C)NC(=O)[C@H](CC(C)C)NC(=O)[C@H](CC(N)=O)NC(=O)[C@H](C)NC(=O)CN)[C@@H](C)O)[C@@H](C)CC)C(=O)N[C@@H](CC(N)=O)C(=O)N[C@@H](Cc1ccc(O)cc1)C(=O)N[C@@H](C)C(=O)N[C@@H](Cc1c[nH]c2ccccc12)C(=O)O [GANLAKKFYTYINKFINYAW]
MIC [7]: ≥ 52.8 µM
MIC [8]: ≥ 106 µM
MIC [9]: 26.4 µM (≈ 64 µg/mL)
MIC (Lactococcus garvieae): ≥ 106 µM
MIC [10]: 26.4 µM (≈ 64 µg/mL)
MIC [11]: ≥ 52.8 µM
MIC (Vibrio harveyi): 3.3 µM (≈ 8 µg/mL)
MIC [12]: 13.2 µM (≈ 32 µg/mL)
MIC [13]: 13.2 µM (≈ 32 µg/mL)
MIC (Streptococcus iniae): ≥ 106 µM
MIC [14]: ≥ 52.8 µM
MIC [15]: ≥ 52.8 µM
MIC [16]: ≥ 52.8 µM
MIC (Vibrio parahaemolyticus): 6.6 µM (≈ 16 µg/mL)
MIC [17]: ≥ 52.8 µM
MIC [18]: 26.4 µM (≈ 64 µg/mL)
MIC [19]: ≥ 52.8 µM
MIC [20]: ≥ 52.8 µM
MIC (Vibrio alginolyticus): 13.2 µM (≈ 32 µg/mL)

SMILES: CC(=O)N[C@@H](CCCCN)C(=O)N[C@@H](CCCCN)C(=O)N[C@@H](Cc1c[nH]c2ccccc12)C(=O)N[C@@H](CCCCN)C(=O)N[C@@H](CCCCN)C(=O)N[C@@H](Cc1c[nH]c2ccccc12)C(=O)N[C@@H](CCCCN)C(=O)N[C@@H](CCCCN)C(=O)N[C@@H](Cc1c[nH]c2ccccc12)C(=O)N[C@@H](CCCCN)C(=O)N[C@@H](CCCCN)C(N)=O [KKWKKWKKWKK]
MIC [27]: ≥ 100 µM
MIC (Escherichia coli K91BK): ≥ 100 µM
MIC [28]: ≥ 50 µM

SMILES: CC[C@H](C)[C@H](NC(=O)[C@H](CC(N)=O)NC(=O)[C@H](CCCCN)NC(C)=O)C(=O)N[C@@H](CCCN=C(N)N)C(=O)N[C@@H](CCCN=C(N)N)C(=O)N[C@H](C(=O)N[C@H](C(=O)N[C@@H](CCCN=C(N)N)C(=O)N[C@@H](CCCCN)C(=O)N[C@H](C(=O)N[C@H](C(=O)N[C@@H](Cc1cnc[nH]1)C(=O)N[C@H](C(=O)N[C@H](C(=O)N[C@@H](CCCCN)C(=O)N[C@@H](CCCCN)C(=O)N[C@@H](Cc1ccc(O)cc1)C(=O)NCC(N)=O)[C@@H](C)CC)[C@@H](C)CC)[C@@H](C)CC)[C@@H](C)CC)[C@@H](C)CC)[C@@H](C)CC [KNIRRIIRKIIHIIKKYG]
MIC [27]: 6.25 µM (≈ 14.4 µg/mL)
MIC (Escherichia coli K91BK): ≥ 100 µM
MIC [28]: 0.93 µM (≈ 2.14 µg/mL)
